Source: patent US10745395B2, “Compounds for their use as drugs for the treatment and/or the prevention of infection(s) caused by biofilm-forming bacteria” (CENTRE NATIONAL DE LA RECHERCHE SCIENTIFIQUE, priority 2014, dated 2020)

Columns and labels:
Format in all cases: cell-based, Pseudomonas aeruginosa
[1] = test system: P. aeruginosa strain PAR 5 biofilm; test: Reduction of biofilm growth (percent vs culture control)
From the text: (§1) FIG. 4A represents the effect of the tested compounds (1, 2, 3 and 4) on exopolysaccharide biosynthesis in the early stages and mature P. aeruginosa biofilm formation, strain PAR 5. The abscissa represents the time (in hours) in order to differentiate early biofilm and mature biofilm, and the ordinate represents the percentage of the biofilm reduction.
(§2) Early biofilm model: formation of early biofilm under influence of the tested substances was observed by filling wells of a 96-well plate with 20 μl of P. aeruginosa suspension and 180 μl of TSB, as described above. Tested iminosugars (compounds 1, 2, 3 and 4) were added immediately after setting-up the bacteria at a final concentration of 0.9 mM. Then, the plate was gently mixed and incubated for 48 hours at 37° C.
(§3) Mature biofilm model: the tested substances were added 48 hours after adherence of bacteria to the wells in a 96-well plate. The growth conditions of P. aeruginosa were exactly the same, as described above for the early biofilm model.
(§4) The effect of the tested compounds (1, 2, 3 and 4) on the reduction of biofilm growth has also been studied on the three P. aeruginosa strains PAR 5, PAR 20, PAR 50.
(§5) (Percent decrease in biofilm thickness was obtained as a mean value from 3 consecutive measurements of the Congo Red stained biofilm using spectrophotometer after addition of the tested iminosugars in comparison to control regarded as 100%).

[2] = test system: P. aeruginosa strain PAR 20 biofilm; test: as above
From the text: as §1, with “4B” for “4A”, “20.” for “5.”
as §2, §3, §4, §5

[3] = test system: P. aeruginosa strain PAR 50 biofilm; test: as above
From the text: as §1, with “4C” for “4A”, “50.” for “5.”
as §2, §3, §4, §5

[4] = test system: P. aeruginosa strain PAR 5 biofilm; test: Early biofilm model, Congo red staining; conditions: for absorbance (Congo red, biofilm formation): 0.9 mM, 492 nm
Protocol: (§6) P. aeruginosa biofilm was set-up in sterile plastic 96-well plates with adherent surface (Greiner Bio-One, USA).
(§7) Twenty microliter quantities of the bacterial stock suspensions, prepared as described above, were added to each well followed with 180 μl of sterile TSB. Final concentration of the bacteria was 1×10^8 CFU/ml.
(§8) The plates were centrifuged for 10 minutes at 2000 rpm to sediment bacteria on the bottom of each well and then incubated for 72 hours (37° C., aerobic conditions).
(§9) Biofilm quantity was determined using Congo red dye according to a modified procedure described by Allison et al. (Allison G C, Sutherland I W. A staining technique for bacteria and its correlation to extracellular carbohydrate production. J Microbiol Meth 2, 93-99 (1984)).
(§10) Briefly, at different time points (0, 6, 18, 24, 48 and 72 hours), the culture medium was gently removed from wells by using the pipette and immediately 200 μl of 0.1% Congo red solution was added. The plates were left for 30 minutes at room temperature and then 10 minutes before the end of staining, the plate was centrifuged for 10 minutes at 2000 rpm and then washed twice with buffered saline to remove unbound dye. Absorbance was measured at λ=492 nm wavelength using spectrophotometer (Awarness Technology Inc., Palm City, Fla., USA). All measurements were performed in triplicates and mean values±SD are given.
as §2
(§11) Biofilm formation and the number of viable bacteria were checked in parallel in the following time intervals: 0, 0.5, 8, 24, 48 hours, in accordance with the procedure described above. Biofilm thickness was estimated by staining it with Cango Red and measuring optical density while number of viable bacteria was performed using the standard viable count method. (Allison G C, Sutherland I W. A staining technique for bacteria and its correlation to extracellular carbohydrate production. J Microbiol Meth 2, 93-99 (1984)).
(§12) P. aeruginosa suspension cultures in TSB broth alone were used as a control.

[5] = test system: P. aeruginosa strain PAR 50 biofilm; test: Early biofilm model, Congo red staining; conditions: for absorbance (Congo red, biofilm formation): early biofilm, 0.9 mM, 492 nm
Protocol: as §6, §7, §8, §9, §10, §2, §11, §12

[6] = test system: P. aeruginosa strain PAR 20 biofilm; test: Early biofilm model, Congo red staining; conditions: for absorbance (Congo red, biofilm formation): early biofilm, 0.9 mM, 492 nm
Protocol: as §6, §7, §8, §9, §10, §2, §11, §12

[7] = test system: P. aeruginosa strain PAR 5 biofilm; test: Mature biofilm model, Congo red staining; conditions: for absorbance (Congo red, biofilm development): mature biofilm, compound added 48 h after induction of biofilm
Protocol: as §9, §10, §3
(§13) After the addition of iminosugars (compounds 1, 2, 3 and 4), the biofilm formation and the number of viable bacteria were checked in the following time intervals: 48, 48.5, 56, 72, 96 hours.

[8] = test system: P. aeruginosa strain PAR 50 biofilm; test: Mature biofilm model, Congo red staining; conditions: for absorbance (Congo red, biofilm development): mature biofilm, compound added 48 h after induction of biofilm
Protocol: as §9, §10, §3, §13

[9] = test system: P. aeruginosa strain PAR 20 biofilm; test: Mature biofilm model, Congo red staining; conditions: for absorbance (Congo red, biofilm development): mature biofilm, compound added 48 h after induction of biofilm
Protocol: as §9, §10, §3, §13

[10] = test system: P. aeruginosa strain PAR 50; test: Number of viable bacteria in early and mature biofilm (viable count)
Protocol: as §11, §13
(§14) Numbers of viable bacteria contained in the early and mature biofilm were estimated on separate plates with wells filled with tested P. aeruginosa strains as described above (PAR 5, PAR 20, PAR 50).
(§15) At the same time intervals, biofilm content in each well was removed and mixed by multiple pippeting and transferred to sterile tubes. Then decimal dilutions of the bacterial suspension were made in TSB broth, plated on McConkey Agar (Oxoid), and incubated at 37° C. for 24 hours.
(§16) Numbers of colonies grown on platter were counted and total numbers of the viable bacteria calculated as colony forming units (CFU) per ml.
(§17) The results depict logs of CFU/ml for three P. aeruginosa strains: PAR 5, PAR 20 and PAR 50 measured at different time intervals (0 hours, 8 hours, 24 hours, 48 hours, 56 hours, 72 hours and 96 hours). The detection limit is 100 CFU/ml.

[11] = test system: P. aeruginosa strain PAR 20; test: as above
Protocol: as §11, §13, §14, §15, §16, §17

[12] = test system: P. aeruginosa strain PAR 5; test: as above
Protocol: as §11, §13, §14, §15, §16, §17

[13] = in comparison with culture control

For COc1ccc(C[C@@H]2CCC[C@@H]3[C@H](O)[C@@H](O)[C@H](CO)N23)cc1 [Compound 3, (1S,2S,3S,5S,9R)-1,2-dihydroxy-3-hydroxymethyl-5-p-methoxybenzylindolizidine], the “reduction of biofilm growth” value ([1]; 8 hours of incubation) was “about 90%”, the “reduction of biofilm growth” value ([1]; 24 hours of incubation) was “about 90%” and the “reduction of biofilm growth” value ([1]; 48 hours of incubation) was “about 25%”. The “reduction of biofilm growth” value ([1]; 72 hours of incubation) was “about 10%”, the “effect on biofilm growth” value ([1]; notably an early biofilm) was “can reduce the biofilm growth” and the “reduction of biofilm growth” value ([2]; 8 hours of incubation) was “about 50%”. For the same compound, the “reduction of biofilm growth” value ([2]; 24 hours of incubation) was “about 60%”, the “reduction of biofilm growth” value ([2]; 48 hours of incubation) was “about 0%” and the “reduction of biofilm growth” value ([2]; 72 hours of incubation) was “about 20%”. The “effect on biofilm growth” value ([2]; notably an early biofilm) was “can reduce the biofilm growth”, the “reduction of biofilm growth” value ([3]; 8 hours of incubation) was “about 45%” and the “reduction of biofilm growth” value ([3]; 24 hours of incubation) was “about 45%”. For the same compound, the “reduction of biofilm growth” value ([3]; 48 hours of incubation) was “about 5%”, the “reduction of biofilm growth” value ([3]; 72 hours of incubation) was “about 20%” and the “effect on biofilm growth” value ([3]; notably an early biofilm) was “can reduce the biofilm growth”. The “biofilm formation at 8 hours, 24 hours and 48 hours” value ([4]; early biofilm) was “no biofilm formation”, the “absorbance (Congo red, biofilm formation)” value ([4]; early biofilm, 8 hours) was “about 0.25 a.u” and the “absorbance (Congo red, biofilm formation)” value ([4]; early biofilm, 24 hours) was “about 0.25 a.u”. The “absorbance (Congo red, biofilm formation)” value ([4]; early biofilm, 48 hours) was “about 0.25 a.u”, the “effect on formation of an early biofilm” value [4, 13] was “inhibit the formation of an early biofilm” and the “absorbance (Congo red, biofilm formation)” value ([5]; 8 hours) was “about 0.8 a.u”. The “absorbance (Congo red, biofilm formation)” value ([5]; 24 hours) was “about 0.25 a.u”, the “absorbance (Congo red, biofilm formation)” value ([5]; 48 hours) was “about 0.25 a.u” and the “effect on formation of an early biofilm” value [5, 13] was “inhibit the formation of an early biofilm”. For the same compound, the “absorbance (Congo red, biofilm formation)” value ([6]; 8 hours) was “about 0.75 a.u”, the “absorbance (Congo red, biofilm formation)” value ([6]; 24 hours) was “about 0.7 a.u” and the “absorbance (Congo red, biofilm formation)” value ([6]; 48 hours) was “about 0.7 a.u”. The “effect on formation of an early biofilm” value [6, 13] was “inhibit the formation of an early biofilm”, the “influence on mature biofilm formation” value [7] was “weak influence” and the “absorbance (Congo red, biofilm development)” value ([7]; 48 hours) was “about 0.75 a.u”. The “absorbance (Congo red, biofilm development)” value ([7]; 56 hours) was “about 1.25 a.u”, the “absorbance (Congo red, biofilm development)” value ([7]; 72 hours) was “about 1.25 a.u” and the “absorbance (Congo red, biofilm development)” value ([7]; 96 hours) was “about 1.25 a.u”. The “influence on mature biofilm formation” value [8] was “weak influence”, the “absorbance (Congo red, biofilm development)” value ([8]; 48 hours) was “about 1.25 a.u” and the “absorbance (Congo red, biofilm development)” value ([8]; 56 hours) was “about 1.0 a.u”. For the same compound, the “absorbance (Congo red, biofilm development)” value ([8]; 72 hours) was “about 2.0 a.u”, the “absorbance (Congo red, biofilm development)” value ([8]; 96 hours) was “about 2.5 a.u” and the “influence on mature biofilm formation” value [9] was “weak influence”. The “absorbance (Congo red, biofilm development)” value ([9]; 48 hours) was “about 0.6 a.u”, the “absorbance (Congo red, biofilm development)” value ([9]; 56 hours) was “about 1.1 a.u” and the “absorbance (Congo red, biofilm development)” value ([9]; 72 hours) was “about 0.75 a.u”. For the same compound, the “absorbance (Congo red, biofilm development)” value ([9]; 96 hours) was “about 1.5 a.u”, the “number of viable P. aeruginosa” value ([10]; early biofilm, 0 h) was 4 × 10^7 CFU/ml and the “number of viable P. aeruginosa” value ([10]; early biofilm, 8 h) was 1 × 10^8 CFU/ml. The “number of viable P. aeruginosa” value ([10]; early biofilm, 24 h) was 6 × 10^8 CFU/ml, the “number of viable P. aeruginosa” value ([10]; early biofilm, 48 h) was 6 × 10^8 CFU/ml and the “number of viable P. aeruginosa” value ([10]; mature biofilm, 56 h) was 4 × 10^8 CFU/ml. For the same compound, the “number of viable P. aeruginosa” value ([10]; mature biofilm, 72 h) was 5 × 10^9 CFU/ml, the “number of viable P. aeruginosa” value ([10]; mature biofilm, 96 h) was 8 × 10^9 CFU/ml and the “number of viable P. aeruginosa” value ([11]; early biofilm, 0 h) was 5 × 10^6 CFU/ml. For the same compound, the “number of viable P. aeruginosa” value ([11]; early biofilm, 8 h) was 3 × 10^7 CFU/ml, the “number of viable P. aeruginosa” value ([11]; early biofilm, 24 h) was 5 × 10^8 CFU/ml and the “number of viable P. aeruginosa” value ([11]; early biofilm, 48 h) was 3 × 10^9 CFU/ml. The “number of viable P. aeruginosa” value ([11]; mature biofilm, 56 h) was 3 × 10^8 CFU/ml, the “number of viable P. aeruginosa” value ([11]; mature biofilm, 72 h) was 7 × 10^7 CFU/ml and the “number of viable P. aeruginosa” value ([11]; mature biofilm, 96 h) was 7 × 10^7 CFU/ml. The “number of viable P. aeruginosa” value ([12]; early biofilm, 0 h) was 6 × 10^6 CFU/ml, the “number of viable P. aeruginosa” value ([12]; early biofilm, 8 h) was 4 × 10^7 CFU/ml and the “number of viable P. aeruginosa” value ([12]; early biofilm, 24 h) was 1 × 10^7 CFU/ml. For the same compound, the “number of viable P. aeruginosa” value ([12]; early biofilm, 48 h) was 2 × 10^6 CFU/ml, the “number of viable P. aeruginosa” value ([12]; mature biofilm, 56 h) was 3 × 10^8 CFU/ml and the “number of viable P. aeruginosa” value ([12]; mature biofilm, 72 h) was 2 × 10^8 CFU/ml. The “number of viable P. aeruginosa” value ([12]; mature biofilm, 96 h) was 1 × 10^9 CFU/ml.
